Laboratory results reported in US20260262643A1, “HERBICIDAL BENZOXAZINES” (FMC CORPORATION, priority 2022, published 2026).

How the values were obtained:
sedge, umbrella = experiment: Test D flooded paddy test; format: in vivo, Cyperus difformis; settings: 250 g ai/ha, applied to paddy water, visual rating after 13 to 14 days, scale 0 to 100 (0 no effect, 100 complete control)
Summary of the method: (§1)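 At the 2-leaf stage, floodwater 3 cm deep received the test compound; that depth persisted throughout. Plants scored visually 13 to 14 days on, 0 (no effect) to 100 (complete control), dash indicating no result.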

ducksalad = experiment: Test D flooded paddy test; format: in vivo, Heteranthera limosa; settings: 250 g ai/ha, applied to paddy water, visual rating after 13 to 14 days, scale 0 to 100 (0 no effect, 100 complete control)
Summary of the method: as §1

ryegrass, Italian [1] = experiment: Test C preemergence; format: in vivo, Lolium multiflorum; settings: 0 to 100 scale (0 no effect, 100 complete control); for Plant response rating, Ryegrass, Italian: Preemergence, 500 g ai/ha, visual rating after 10 days; for Ryegrass, Italian plant response rating: Test C, preemergence, 125 g ai/ha
Summary of the method: (§2)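 Soil-applied (pre) and foliar (post, 1–2 leaf, 2–10 cm) sprays; surfactant-containing non-phytotoxic solvent vehicle; loam/sand substrate. Readout: visual % control at 10 d, greenhouse, versus untreated.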

ragweed [2] = experiment: Test C preemergence; format: in vivo, Ambrosia artemisiifolia; settings: 0 to 100 scale (0 no effect, 100 complete control); for Plant response rating, Ragweed: Preemergence, 500 g ai/ha, visual rating after 10 days; for Ragweed plant response rating: Test C, preemergence, 125 g ai/ha
Summary of the method: as §2

kochia [3] = experiment: Test C postemergence; format: in vivo, Bassia scoparia; settings: 10 days
Summary of the method: as §2

oat, wild [4] = experiment: Test C preemergence; format: in vivo, Avena fatua; settings: 0 to 100 scale (0 no effect, 100 complete control); for Plant response rating, Oat, Wild: Preemergence, 500 g ai/ha, visual rating after 10 days; for Oat, Wild plant response rating: Test C, preemergence, 125 g ai/ha
Summary of the method: as §2

green foxtail [5] = experiment: Test C postemergence; format: in vivo, Setaria viridis; settings: 10 days
Summary of the method: as §2

ragweed [6] = experiment: Test C postemergence; format: in vivo, Ambrosia artemisiifolia; settings: 10 days
Summary of the method: as §2

blackgrass [7] = experiment: Test C preemergence; format: in vivo, Alopecurus myosuroides; settings: 0 to 100 scale (0 no effect, 100 complete control); for Plant response rating, Blackgrass: Preemergence, 500 g ai/ha, visual rating after 10 days; for Blackgrass plant response rating: Test C, preemergence, 125 g ai/ha
Summary of the method: as §2

barnyardgrass [8] = experiment: Test C postemergence; format: in vivo, Echinochloa crusgalli; settings: 10 days
Summary of the method: as §2

barnyardgrass [9] = experiment: Test D flooded paddy test; format: in vivo, Echinochloa crus-galli; settings: 250 g ai/ha, applied to paddy water, visual rating after 13 to 14 days, scale 0 to 100 (0 no effect, 100 complete control)
Summary of the method: as §1

corn [10] = experiment: Test C preemergence; format: in vivo, Zea mays; settings: 0 to 100 scale (0 no effect, 100 complete control); for Plant response rating, Corn: Preemergence, 500 g ai/ha, visual rating after 10 days; for Corn plant response rating: Test C, preemergence, 125 g ai/ha
Summary of the method: as §2

horseweed = experiment: Test C postemergence; format: in vivo, Erigeron canadensis; settings: 10 days
Summary of the method: as §2

kochia [11] = experiment: Test C preemergence; format: in vivo, Bassia scoparia; settings: 0 to 100 scale (0 no effect, 100 complete control); for Plant response rating, Kochia: Preemergence, 500 g ai/ha, visual rating after 10 days; for Kochia plant response rating: Test C, preemergence, 125 g ai/ha
Summary of the method: as §2

ryegrass, Italian [12] = experiment: Test C postemergence; format: in vivo, Lolium multiflorum; settings: 10 days
Summary of the method: as §2

blackgrass [13] = experiment: Test C postemergence; format: in vivo, Alopecurus myosuroides; settings: 10 days
Summary of the method: as §2

corn [14] = experiment: Test C postemergence; format: in vivo, Zea mays; settings: 10 days
Summary of the method: as §2

oat, wild [15] = experiment: Test C postemergence; format: in vivo, Avena fatua; settings: 10 days
Summary of the method: as §2

green foxtail [16] = experiment: Test C preemergence; format: in vivo, Setaria viridis; settings: 0 to 100 scale (0 no effect, 100 complete control); for Plant response rating, Foxtail, Green: Preemergence, 500 g ai/ha, visual rating after 10 days; for Foxtail, Green plant response rating: Test C, preemergence, 125 g ai/ha
Summary of the method: as §2

soybean [17] = experiment: Test C postemergence; format: in vivo, Glycine max; settings: 10 days
Summary of the method: as §2

rice = experiment: Test D flooded paddy test; format: in vivo, Oryza sativa; settings: 250 g ai/ha, applied to paddy water, visual rating after 13 to 14 days, scale 0 to 100 (0 no effect, 100 complete control)
Summary of the method: as §1

soybean [18] = experiment: Test C preemergence; format: in vivo, Glycine max; settings: 0 to 100 scale (0 no effect, 100 complete control); for Plant response rating, Soybean: Preemergence, 500 g ai/ha, visual rating after 10 days; for Soybean plant response rating: Test C, preemergence, 125 g ai/ha
Summary of the method: as §2

barnyardgrass [19] = experiment: Test C preemergence; format: in vivo, Echinochloa crusgalli; settings: 0 to 100 scale (0 no effect, 100 complete control); for Plant response rating, Barnyardgrass: Preemergence, 500 g ai/ha, visual rating after 10 days; for Barnyardgrass plant response rating: Test C, preemergence, 125 g ai/ha
Summary of the method: as §2

pigweed, palmer [20] = experiment: Test C postemergence; format: in vivo, Amaranthus palmeri; settings: 10 days
Summary of the method: as §2

pigweed, palmer [21] = experiment: Test C preemergence; format: in vivo, Amaranthus palmeri; settings: 0 to 100 scale (0 no effect, 100 complete control); for Plant response rating, Pigweed, Palmer: Preemergence, 500 g ai/ha, visual rating after 10 days; for Pigweed, Palmer plant response rating: Test C, preemergence, 125 g ai/ha
Summary of the method: as §2

wheat [22] = experiment: Test C postemergence; format: in vivo, Triticum aestivum; settings: 10 days
Summary of the method: as §2

galium = experiment: Test C postemergence; format: in vivo, Galium aparine; settings: 10 days
Summary of the method: as §2

wheat [23] = experiment: Test C preemergence; format: in vivo, Triticum aestivum; settings: 0 to 100 scale (0 no effect, 100 complete control); for Plant response rating, Wheat: Preemergence, 500 g ai/ha, visual rating after 10 days; for Wheat plant response rating: Test C, preemergence, 125 g ai/ha
Summary of the method: as §2

[24] = 125 g ai/ha, postemergence, 0 to 100 scale, 0 no effect, 100 complete control
[25] = Postemergence, 500 g ai/ha, visual 0 to 100 scale (0 no effect, 100 complete control)

COc1ccc(-n2cncn2)cc1C(=O)N1C[C@H](C)Oc2ccccc21 [Compound 228]
20: Wheat plant response rating (wheat [23])
90: Plant response rating, Ryegrass, Italian (ryegrass, Italian [1]) | Ryegrass, Italian plant response rating (ryegrass, Italian [1]) | Plant response rating, Oat, Wild (oat, wild [4]) | Plant response rating, Foxtail, Green (green foxtail [5]; [25]) | Plant response rating, Blackgrass (blackgrass [7]) | Plant response rating, Barnyardgrass (barnyardgrass [8]; [25]) | Plant response rating, Blackgrass (blackgrass [13]; [25]) | Plant response rating, Soybean (soybean [18]) | Barnyardgrass plant response rating (barnyardgrass [19]) | Plant response rating, Pigweed, Palmer (pigweed, palmer [20]; [25]) | Plant response rating, Wheat (wheat [22]; [25])
80: Plant response rating, Ducksalad (Flood) (ducksalad) | Blackgrass plant response rating (blackgrass [7]) | Plant response rating, Blackgrass (blackgrass [13]; [24]) | Plant response rating, Corn (corn [14]; [25]) | Plant response rating, Oat, Wild (oat, wild [15]; [25])
50: Plant response rating, Ragweed (ragweed [2]) | Plant response rating, Kochia (kochia [3]; [24]) | Plant response rating, Wheat (wheat [22]; [24])
40: Ragweed plant response rating (ragweed [2]) | Oat, Wild plant response rating (oat, wild [4]) | Plant response rating, Corn (corn [14]; [24])
30: Plant response rating, Foxtail, Green (green foxtail [5]; [24]) | Plant response rating, Ragweed (ragweed [6]; [25]) | Plant response rating, Horseweed (horseweed; [25]) | Plant response rating, Oat, Wild (oat, wild [15]; [24]) | Plant response rating, Wheat (wheat [23])
70: Plant response rating, Kochia (kochia [3]; [25]) | Soybean plant response rating (soybean [18]) | Plant response rating, Pigweed, Palmer (pigweed, palmer [20]; [24])
25: Plant response rating, Rice (Flood) (rice)
0: Kochia plant response rating (kochia [11])
60: Plant response rating, Barnyardgrass (barnyardgrass [8]; [24]) | Plant response rating, Corn (corn [10]) | Plant response rating, Kochia (kochia [11])
10: Plant response rating, Ragweed (ragweed [6]; [24]) | Corn plant response rating (corn [10]) | Plant response rating, Horseweed (horseweed; [24])
95: Plant response rating, Sedge, Umbrella (Flood) (sedge, umbrella)
15: Plant response rating, Barnyardgrass (Flood) (barnyardgrass [9])
100: Plant response rating, Ryegrass, Italian (ryegrass, Italian [12]; [24]) | Plant response rating, Ryegrass, Italian (ryegrass, Italian [12]; [25]) | Plant response rating, Foxtail, Green (green foxtail [16]) | Foxtail, Green plant response rating (green foxtail [16]) | Plant response rating, Soybean (soybean [17]; [24]) | Plant response rating, Soybean (soybean [17]; [25]) | Plant response rating, Barnyardgrass (barnyardgrass [19]) | Plant response rating, Pigweed, Palmer (pigweed, palmer [21]) | Pigweed, Palmer plant response rating (pigweed, palmer [21]) | Plant response rating, Galium (galium; [24]) | Plant response rating, Galium (galium; [25])

CC(C)c1ncn(-c2ccc(S(=O)(=O)C(F)(F)F)c(C(=O)N3C[C@H](C)Oc4c(Cl)cccc43)c2)n1 [Compound 229]
0: Plant response rating, Sedge, Umbrella (Flood) (sedge, umbrella) | Plant response rating, Ducksalad (Flood) (ducksalad) | Ryegrass, Italian plant response rating (ryegrass, Italian [1]) | Plant response rating, Ragweed (ragweed [2]) | Ragweed plant response rating (ragweed [2]) | Plant response rating, Kochia (kochia [3]; [24]) | Plant response rating, Kochia (kochia [3]; [25]) | Plant response rating, Oat, Wild (oat, wild [4]) | Oat, Wild plant response rating (oat, wild [4]) | Plant response rating, Foxtail, Green (green foxtail [5]; [24]) | Plant response rating, Foxtail, Green (green foxtail [5]; [25]) | Plant response rating, Ragweed (ragweed [6]; [24]) | Plant response rating, Ragweed (ragweed [6]; [25]) | Plant response rating, Blackgrass (blackgrass [7]) | Blackgrass plant response rating (blackgrass [7]) | Plant response rating, Barnyardgrass (barnyardgrass [8]; [24]) | Plant response rating, Barnyardgrass (barnyardgrass [8]; [25]) | Plant response rating, Barnyardgrass (Flood) (barnyardgrass [9]) | Plant response rating, Corn (corn [10]) | Corn plant response rating (corn [10]) | Plant response rating, Horseweed (horseweed; [24]) | Plant response rating, Horseweed (horseweed; [25]) | Plant response rating, Kochia (kochia [11]) | Kochia plant response rating (kochia [11]) | Plant response rating, Ryegrass, Italian (ryegrass, Italian [12]; [24]) | Plant response rating, Blackgrass (blackgrass [13]; [24]) | Plant response rating, Blackgrass (blackgrass [13]; [25]) | Plant response rating, Corn (corn [14]; [24]) | Plant response rating, Corn (corn [14]; [25]) | Plant response rating, Oat, Wild (oat, wild [15]; [24]) | Plant response rating, Oat, Wild (oat, wild [15]; [25]) | Plant response rating, Foxtail, Green (green foxtail [16]) | Foxtail, Green plant response rating (green foxtail [16]) | Plant response rating, Rice (Flood) (rice) | Plant response rating, Soybean (soybean [18]) | Soybean plant response rating (soybean [18]) | Plant response rating, Barnyardgrass (barnyardgrass [19]) | Barnyardgrass plant response rating (barnyardgrass [19]) | Plant response rating, Pigweed, Palmer (pigweed, palmer [20]; [24]) | Plant response rating, Pigweed, Palmer (pigweed, palmer [20]; [25]) | Plant response rating, Pigweed, Palmer (pigweed, palmer [21]) | Pigweed, Palmer plant response rating (pigweed, palmer [21]) | Plant response rating, Wheat (wheat [22]; [24]) | Plant response rating, Wheat (wheat [22]; [25]) | Plant response rating, Galium (galium; [24]) | Plant response rating, Galium (galium; [25]) | Plant response rating, Wheat (wheat [23]) | Wheat plant response rating (wheat [23])
10: Plant response rating, Ryegrass, Italian (ryegrass, Italian [1])
40: Plant response rating, Soybean (soybean [17]; [24]) | Plant response rating, Soybean (soybean [17]; [25])
